# Assay results taken from patent US9242933B2 (AbbVie Deutschland GmbH & Co. KG, priority 2007, dated 2016).
# pEC50: −log10 of the molar value.
# Target: T1, human mGlu2 receptor (Homo sapiens, UniProt Q14416)
# T1 construct: expressed in transfected cells; host or cells: HEK293
# Assay: FLIPR intracellular Ca2+ assay, potentiation of glutamate response in HEK293 clone expressing mGlu2 receptor, rGLAST and Galpha16
# Format: cell-based
# Settings: 1 μM glutamate added ten minutes after test compound, HEK293 cells with human mGlu2, rGLAST, Galpha16, read-out: EC50 values of potentiation effect to glutamate
# From the text: The compounds of the present invention can be tested e.g. by evaluating intracellular Ca^2+ concentrations in cells permanently expressing human mGlu receptor, the rat glutamate transporter rGLAST and the Galpha16 subunit of the G-protein complex under standard conditions in a fluorometric imaging plate reader (FLIPR, Molecular Devices, Union City, Calif. 94587, USA) by measuring the response of the cells to a test compound in the absence of presence of glutamate. The FLIPR assay is a common functional assay to monitor native or recombinant Galphaq-coupled receptors, and native or recombinant receptors normally linked to other G-protein signalling cascades, which are coupled to calcium through co-expression of an alpha subunit of a promiscuous or chimeric G-protein. In the assay the increase of intracellular calcium is measured through a calcium-dependent fluorescent dye (e.g. Fluo-4 AM) in the FLIPR instrument.
# For the purpose of the present study, a cell line permanently expressing a human mGlu receptor, such as the mGlu2 receptor, the rat glutamate transporter rGLAST and the GalphaG16 may be generated by transfection as described in the examples. For selection of a suitable cell clone and also the subsequent measurements, the selected clone the cells will be plated on suitable multiwell plates in a suitable medium (e.g. DMEM Glutamax (GIBCO #21885-025)/10% dialyzed FCS). Cells may be selected by gentamycin treatment as described in the examples. Cells will then be loaded with a suitable Ca^2+ sensitive fluorescence dye, e.g. with 2 μM Fluo-4 AM (Molecular Probes, F14201). Cells will then be washed with a suitable buffer (e.g. HEPES) and the thus treated plates will be measured in a fluorometric imaging plate reader (e.g. FLIPR, Molecular Devices, Union City, Calif. 94587, USA).
# The compounds of the present invention were tested in the above-described FLIPR assay using the selected cell clone. Increased intracellular calcium levels were quantified following addition of test compound (agonism), as well as following addition of a submaximal concentration of glutamate (potentiation).
# For the determination of the effect of the test compound by itself (agonism) or by increasing the response to a submaximal concentration (e.g. 1 μM) of glutamate (potentiation), the resulting signal is determined by subtraction of the background fluorescence from the maximal fluorescent peak height of the respective response. In the FLIPR instrument the compound is given to the cell and its fluorescence response quantified by the FLIPR instrument (agonism). The concentration at which the compound exerts half its maximal effect is named the ‘effective concentration 50’ or ‘EC50’. The maximal effect induced by the test substance is normalized to the maximal effect exerted by 100 μM glutamate (set at 100%).
# After addition of the test compound to the plate, a submaximal concentration of glutamate (e.g. 1 μM glutamate) will be added. A potentiator enhances the response of the receptor to glutamate. The response to glutamate in the presence of test compound is quantified. The concentration at which the test compound is able to exert half its maximal potentiation effect to glutamate is named the ‘EC50’. The maximal response to the submaximal concentration of glutamate (e.g. 1 micromolar glutamate) in the presence of test compound is normalized to the maximal effect exerted by 100 micromolar glutamate (set at 100%). Least squares curve fitting with a four-parameter equation is then applied to the resulting dose-response curve to determine the resulting EC5O values (Graph Pad Prism).
# For the purpose of the present study, a cell line permanently expressing the human mGlu2 receptor, the rat glutamate transporter rGLAST and the alpha subunit of G16 was generated by transfection. […]
# T1 sequence (Q14416 19-872): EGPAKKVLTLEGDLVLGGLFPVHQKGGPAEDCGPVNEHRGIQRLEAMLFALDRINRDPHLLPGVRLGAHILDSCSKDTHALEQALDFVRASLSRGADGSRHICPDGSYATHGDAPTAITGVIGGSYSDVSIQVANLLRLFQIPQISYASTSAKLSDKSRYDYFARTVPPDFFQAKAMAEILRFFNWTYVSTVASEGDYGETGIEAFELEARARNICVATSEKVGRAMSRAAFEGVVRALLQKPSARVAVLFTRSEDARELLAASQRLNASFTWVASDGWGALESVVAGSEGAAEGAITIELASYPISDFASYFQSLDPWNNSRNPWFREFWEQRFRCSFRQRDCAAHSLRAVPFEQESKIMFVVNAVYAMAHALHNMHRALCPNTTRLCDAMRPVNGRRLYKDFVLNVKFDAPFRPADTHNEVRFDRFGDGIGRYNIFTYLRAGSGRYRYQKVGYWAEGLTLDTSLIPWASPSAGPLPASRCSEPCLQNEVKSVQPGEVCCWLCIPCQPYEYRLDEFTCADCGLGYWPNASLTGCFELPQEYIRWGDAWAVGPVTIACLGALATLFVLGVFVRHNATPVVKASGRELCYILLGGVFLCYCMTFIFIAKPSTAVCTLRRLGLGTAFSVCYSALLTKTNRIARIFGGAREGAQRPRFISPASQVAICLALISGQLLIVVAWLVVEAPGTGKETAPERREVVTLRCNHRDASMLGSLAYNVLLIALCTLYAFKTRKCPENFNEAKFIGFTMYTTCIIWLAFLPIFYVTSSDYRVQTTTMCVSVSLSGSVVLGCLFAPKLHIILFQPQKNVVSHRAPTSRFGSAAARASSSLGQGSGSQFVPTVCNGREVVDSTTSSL
row,SMILES,pEC50
1,"COc1ccccc1Oc1ccc(NCc2c[nH]nc2-c2ccc(C(F)(F)F)cc2)cc1 [Example 83, [4-(2-Methoxy-phenoxy)-phenyl]-[3-(4-trifluoromethylphenyl)-1H-pyrazol-4-ylmethyl]-amine]",> 6.00
2,"CCN1Cc2cc(OCc3c[nH]nc3-c3ccc(Cl)cc3)ccc2C1=O [Example 562, 5-[3-(4-Chloro-phenyl)-1H-pyrazol-4-ylmethoxy]-2-ethyl-2,3-dihydro-isoindol-1-one]",> 6.00
3,"CCCC(=O)c1ccc(NCc2c[nH]nc2-c2ccccc2)cc1 [Example 210, 1-{4-[(3-Phenyl-1H-pyrazol-4-ylmethyl)-amino]-phenyl}-butan-1-one]",> 6.00
4,CCCC(=O)c1ccc(NCc2cnn(CCC)c2C)cc1 [Example 71],5.00 to 6.00
5,"CCCN1Cc2cc(OCc3c[nH]nc3-c3ccc(Cl)cc3)ccc2C1=O [Example 534, 5-[3-(4-Chloro-phenyl)-1H-pyrazol-4-ylmethoxy]-2-propyl-2,3-dihydro-isoindol-1-one]",> 6.00
6,"CCCC(=O)c1ccc(NCc2cn[nH]c2)cc1 [Example 68, 1-{4-[(1H-Pyrazol-4-ylmethyl)amino]phenyl}butan-1-one]",5.00 to 6.00
7,"CCCC(=O)c1ccc(NCc2cccnc2)cc1 [Example 16, 1-{4-[(Pyridin-3-ylmethyl)amino]phenyl}butan-1-one]",5.00 to 6.00
8,"COc1ccc(NCc2c[nH]nc2-c2ccc(C(F)(F)F)cc2)c(OC)n1 [Example 351, (2,6-Dimethoxy-pyridin-3-yl)-[3-(4-trifluoromethyl-phenyl)-1H-pyrazol-4-ylmethyl]-amine]",5.00 to 6.00
9,"CCCC(=O)c1ccc(NCc2c[nH]nc2C(C)(C)C)cc1 [Example 77, 1-{4-[(3-tert-Butyl-1H-pyrazol-4-ylmethyl)amino]phenyl}butan-1-one]",> 6.00
10,"CN(C)S(=O)(=O)c1ccc(NCc2c[nH]nc2-c2ccc(C(F)(F)F)cc2)cc1 [Example 169, N,N-Dimethyl-4-{[3-(4-trifluoromethyl-phenyl)-1H-pyrazol-4-ylmethyl]-amino}-benzenesulfonamide]",5.00 to 6.00
11,"CCCC(=O)c1ccc(NCc2c[nH]nc2-c2cccc(C(F)(F)F)c2)cc1 [Example 416, 1-(4-{[3-(3-Trifluoromethyl-phenyl)-1H-pyrazol-4-ylmethyl]-amino}-phenyl)-butan-1-one]",5.00 to 6.00
12,"CC(=O)c1ccc(OCc2c[nH]nc2-c2ccc(C(F)(F)F)cc2)cc1 [Example 483, 1-{4-[3-(4-Trifluoromethyl-phenyl)-1H-pyrazol-4-ylmethoxy]-phenyl}-ethanone]",5.00 to 6.00
13,"CCCC(=O)c1ccc(NCc2ccnn2-c2ccccc2)cc1 [Example 57, 1-{4-[(2-Phenyl-2H-pyrazol-3-ylmethyl)amino]phenyl}butan-1-one]",5.00 to 6.00
14,CCCC(=O)c1ccc(NCc2cnn(C)c2-c2ccccc2)cc1 [Example 73],> 6.00
15,"CCCCN1Cc2cc(OCc3c[nH]nc3-c3cccc(F)c3)ccc2C1=O [Example 550, 2-Butyl-5-[3-(3-fluorophenyl)-1H-pyrazol-4-ylmethoxy]-2,3-dihydro-isoindol-1-one]",> 6.00
16,"O=C1c2ccc(OCc3c[nH]nc3-c3cccc(C(F)(F)F)c3)cc2CN1CCC(F)(F)F [Example 538, 5-[3-(3-Trifluoromethyl-phenyl)-1H-pyrazol-4-ylmethoxy]-2-(3,3,3-trifluoro-propyl)-2,3-dihydro-isoindol-1-one]",> 6.00
17,"CCCC(=O)c1ccc(NCc2c(C)nn(-c3ccccc3)c2C)cc1 [Example 56, 1-{4-[(3,5-Dimethyl-1-phenyl-1H-pyrazol-4-ylmethyl)amino]phenyl}butan-1-one]",5.00 to 6.00
18,"CCCC(C)Oc1cccc(NCc2c[nH]nc2-c2ccc(C(F)(F)F)cc2)c1 (centres unmarked) [Example 379, [3-(1-Methyl-butoxy)-phenyl]-[3-(4-trifluoromethyl-phenyl)-1H-pyrazol-4-ylmethyl]-amine]",5.00 to 6.00

row,SMILES,pEC50
1,"CCCC(=O)c1ccc(OCc2c[nH]nc2-c2ccccc2)cc1 [Example 499, 1-[4-(3-Phenyl-1H-pyrazol-4-ylmethoxy)-phenyl]-butan-1-one]",> 6.00
2,CCCN1Cc2cc(NCc3n[nH]cc3-c3cccc(C(F)(F)F)c3)ccc2C1=O [Example 582],5.00 to 6.00
3,"CCCC(=O)c1ccc(N(Cc2cccnc2)S(=O)(=O)CC(F)(F)F)cc1 [Example 383, 2,2,2-Trifluoro-ethanesulfonic acid (4-butyryl-phenyl)-pyridin-3-ylmethyl-amide]",5.00 to 6.00
4,"CCCC(=O)c1ccc(NCc2cnn3ccccc23)cc1 [Example 529, 1-{4-[(Pyrazolo[1,5-a]pyridin-3-ylmethyl)-amino]-phenyl}-butan-1-one]",5.00 to 6.00
5,"O=C1c2ccc(OCc3c[nH]nc3-c3cccc(C(F)(F)F)c3)cc2CN1CCBr [Example 565, 2-(2-Bromo-ethyl)-5-[3-(3-trifluoromethyl-phenyl)-1H-pyrazol-4-ylmethoxy]-2,3-dihydro-isoindol-1-one]",> 6.00
6,"CCCC(=O)c1ccc(NCc2cnn(-c3ccccc3)c2C)cc1 [Example 45, 1-{4-[(5-Methyl-1-phenyl-1H-pyrazol-4-ylmethyl)amino]phenyl}butan-1-one]",5.00 to 6.00
7,"CCCC(=O)c1ccc(NCc2ccncc2-c2ccccc2)cc1 [Example 524, 1-{4-[(3-Phenyl-pyridin-4-ylmethyl)-amino]-phenyl}-butan-1-one]",5.00 to 6.00
8,"O=C1c2ccc(OCc3c[nH]nc3-c3ccccc3)cc2CN1CCCC(F)(F)F [Example 553, 5-(3-Phenyl-1H-pyrazol-4-ylmethoxy)-2-(4,4,4-trifluoro-butyl)-2,3-dihydro-isoindol-1-one]",> 6.00
9,"CCCC(=O)c1ccc(NCc2sc(C)nc2-c2ccccc2)cc1 [Example 233, 1-{4-[(2-Methyl-4-phenyl-thiazol-5-ylmethyl)-amino]-phenyl}-butan-1-one]",5.00 to 6.00
10,"CCCC(=O)c1ccc(NCc2cnn(C)c2C)cc1 [Example 60, 1-{4-[(1,5-Dimethyl-1H-pyrazol-4-ylmethyl)amino]phenyl}butan-1-one]",5.00 to 6.00
11,"FC(F)(F)c1ccc(-c2n[nH]cc2CNc2cccc(Cl)n2)cc1 [Example 349, (6-Chloro-pyridin-2-yl)-[3-(4-trifluoromethyl-phenyl)-1H-pyrazol-4-ylmethyl]-amine]",5.00 to 6.00
12,"CCCN1CCc2cc(OCc3c[nH]nc3-c3ccc(C(F)(F)F)cc3)ccc2C1=O [Example 574, 2-Propyl-6-[3-(4-trifluoromethyl-phenyl)-1H-pyrazol-4-ylmethoxy]-3,4-dihydro-2H-isoquinolin-1-one]",> 6.00
13,"CCCC(=O)c1ccc(NCc2c[nH]nc2-c2ccc(OC)c(OC)c2)cc1 [Example 218, 1-(4-{[3-(3,4-Dimethoxy-phenyl)-1H-pyrazol-4-ylmethyl]-amino}-phenyl)-butan-1-one]",> 6.00
14,"CN(C)c1cccc(N(Cc2cccnc2)S(=O)(=O)CC(F)(F)F)c1 [Example 389, 2,2,2-Trifluoro-ethanesulfonic acid (3-dimethylamino-phenyl)-pyridin-3-ylmethyl-amide]",5.00 to 6.00
15,"CCCC(=O)c1ccc(NCc2c(-c3ccccc3)noc2C)cc1 [Example 43, 1-{4-[(5-Methyl-3-phenylisoxazol-4-ylmethyl)amino]phenyl}butan-1-one]",5.00 to 6.00
16,"CCCC(=O)c1ccc(NCc2ccc(OC)nc2OC)cc1 [Example 317, 1-{4-[(2,6-Dimethoxy-pyridin-3-ylmethyl)-amino]-phenyl}-butan-1-one]",5.00 to 6.00
17,"O=C1c2ccc(OCc3c[nH]nc3-c3ccc(C(F)(F)F)cc3)cc2CN1CC(F)(F)F [Example 568, 2-(2,2,2-Trifluoro-ethyl)-5-[3-(4-trifluoromethyl-phenyl)-1H-pyrazol-4-ylmethoxy]-2,3-dihydro-isoindol-1-one]",> 6.00
